Reference: US20220007651A1, “BACILLUS THURINGIENSIS STRAINS AND METHODS FOR CONTROLLING PESTS” (priority 2018, published 2022)

B1: Cry1Ia2: Cry toxin, SEQ ID NO: 9, expressed in Escherichia coli BL21, applied as whole broth (protein, listed as Bacillus thuringiensis)
chain: MKLKNQDKHQSFSSNAKVDKISTDSLKNETDIELQNINHEDCLKMSEYENVEPFVSASTIQTGIGIAGKILGTLGVPFAGQVASLYSFILGELWPKGKNQWEIFMEHVEEIINQKISTYARNKALTDLKGLGDALAVYHDSLESWVGNRNNTRARSVVKSQYIALELMFVQKLPSFAVSGEEVPLLPIYAQAANLHLLLLRDASIFGKEWGLSSSEISTFYNRQVERAGDYSDHCVKWYSTGLNNLRGTNAESWVRYNQFRRDMTLMVLDLVALFPSYDTQMYPIKTTAQLTREVYTDAIGTVHPHPSFTSTTWYNNNAPSFSAIEAAVVRNPHLLDFLEQVTIYSLLSRWSNTQYMNMWGGHKLEFRTIGGTLNISTQGSTNTSINPVTLPFTSRDVYRTESLAGLNLFLTQPVNGVPRVDFHWKFVTHPIASDNFYYPGYAGIGTQLQDSENELPPEATGQPNYESYSHRLSHIGLISASHVKALVYSWTHRSADRTNTIEPNSITQIPLVKAFNLSSGAAVVRGPGFTGGDILRRTNTGTFGDIRVNINPPFAQRYRVRIRYASTTDLQFHTSINGKAINQGNFSATMNRGEDLDYKTFRTVGFTTPFSFLDVQSTFTIGAWNFSSGNEVYIDRIEFVPVEVTYEAEYDFEKAQEKVTALFTSTNPRGLKTDVKDYHIDQVSNLVESLSDEFYLDEKRELFEIVKYAKQLHIERNM
B2: Cry2Ab1: Cry toxin, SEQ ID NO: 10, expressed in Escherichia coli BL21, applied as whole broth (protein, listed as Bacillus thuringiensis)
chain: MNSVLNSGRTTICDAYNVAAHDPFSFQHKSLDTVQKEWTEWKKNNHSLYLDPIVGTVASFLLKKVGSLVGKRILSELRNLIFPSGSTNLMQDILRETEKFLNQRLNTDTLARVNAELTGLQANVEEFNRQVDNFLNPNRNAVPLSITSSVNTMQQLFLNRLPQFQMQGYQLLLLPLFAQAANLHLSFIRDVILNADEWGISAATLRTYRDYLKNYTRDYSNYCINTYQSAFKGLNTRLHDMLEFRTYMFLNVFEYVSIWSLFKYQSLLVSSGANLYASGSGPQQTQSFTSQDWPFLYSLFQVNSNYVLNGFSGARLSNTFPNIVGLPGSTTTHALLAARVNYSGGISSGDIGASPFNQNFNCSTFLPPLLTPFVRSWLDSGSDREGVATVTNWQTESFETTLGLRSGAFTARGNSNYFPDYFIRNISGVPLVVRNEDLRRPLHYNEIRNIASPSGTPGGARAYMVSVHNRKNNIHAVHENGSMIHLAPNDYTGFTISPIHATQVNNQTRTFISEKFGNQGDSLRFEQNNTTARYTLRGNGNSYNLYLRVSSIGNSTIRVTINGRVYTATNVNTTTNNDGVNDNGARFSDINIGNVVASSNSDVPLDINVTLNSGTQFDLMNIMLVPTNISPLY

Experiments:
[1] = test system: Spodoptera exigua Hübner (beet armyworm); assay: Insecticidal assay, second instars on 48-well agar substrate plates; type: in vivo
Source text: Zwittermicin A was partially purified from a strain derived from Bacillus thuringiensis strain NRRL B-67688. After growing the strain in a soy-based medium, the whole broth was centrifuged and the supernatant removed. The supernatant was passed through a 3 kDa filter to separate the zwittermicin A from larger molecules including any Cry toxins. The Vip3Aa11 protein was produced in the expression strain of Escherichia coli BL21 and applied to insect larvae as the E. coli whole broth culture (WB) at concentrations of 0.1%, 1%, and 10%. Treatment groups included Vip3Aa11 only (“no Zwa”); Vip3Aa11 with zwittermicin A (“1×Zwa); and Vip3Aa11 with concentrated zwittermicin A (“2×Zwa”) containing twice as much zwittermicin. Concentrations of zwittermicin A and Vip3Aa11 were adjusted by adding deionized water to prepare the appropriate dilutions. Control treatments included zwittermicin A (“1×Zwa”) alone, concentrated zwittermicin A alone (“2×Zwa”), untreated control, and a positive control containing 1000 ppm of a commercially available biological control agent active against Lepidoptera.
To evaluate the insecticidal activity of each treatment, second instars of Spodoptera exigua Hυbner (beet armyworm) were grown on 48-well plates containing an agar substrate similar to that described in Marrone et al., (1985), “Improvements in Laboratory Rearing of the Southern Corn Rootworm, Diabrotica undecimpuncta howardi Barber (Coleoptera: Chrysomelidae), on an Artificial Diet and Corn,” J. Econ. Entomol. 78: 290-293. Each treatment was applied to the agar substrate and a second instar was then placed in the well. After several days, insect development and survival were evaluated. Insect development scores were rated according to the following scale: 1=severely stunted; 2=highly stunted, minimal growth; 3=slightly smaller than untreated control; 4=same size as untreated control. […]
The experiment conducted in Example 3 was repeated with Cry1Ab1, Cry1Ia2, or Cry2Ab1 expressed in Escherichia coli BL21 and applied to insect larvae as the E. coli whole broth culture (WB) at concentrations of 0.2%, 4%, 10%, and 50%. The insect mortality score is based on the following scale: 4=0-25% mortality, 3=26-50% mortality, 2=51-79% mortality, 1=80-100% mortality. All percentages are adjusted according to any mortality observed with untreated control Spodoptera exigua Hυbner (beet armyworm) larvae. […] All reported mortality scores are the average of three replicate measurements.
The experiment in Example 3 was also repeated with Cry1Ca1 and Cry1Da1, which were expressed in Escherichia coli BL21 and applied to insect larvae as the E. coli whole broth culture (WB) at various concentrations. Instead of insect mortality rates, LC50, which in this case is the percentage of whole broth needed to cause 50% mortality, without zwittermicin or with various concentrations of zwittermicin, was determined.

[2] = test system: Lepidopteran pests; details: Broderick et al., 2000; cited from earlier work
[3] = Cry toxin applied alone, E. coli whole broth 0.2%, 4%, 10%, 50%
[4] = Cry toxin in combination with zwittermicin A (1×Zwa), FIGS. 4A-4C

Molecule | insect mortality [1, 3] | insect mortality [1, 4] | also measured
Cry1Ab1: Cry toxin expressed in Escherichia coli BL21, applied as whole broth | demonstrated insect mortality at the higher application rates | significant increase in insect mortality | –
NC(=O)NCC(NC(=O)[C@@H](O)[C@H](O)[C@H](N)C(O)CC(O)C(N)CO)C(N)=O (some centres unmarked) [zwittermicin A] | – | – | insect mortality ([1]; zwittermicin A alone, 1×Zwa): generally had no observable effect on insect mortality; insect mortality ([1]; zwittermicin alone at the concentrations used in the LC50 experiment): generally had no observable effect on insect mortality; effect on insect growth or survival ([1]; zwittermicin alone, 1×Zwa or 2×Zwa): no significant effect on insect growth or survival; insecticidal activity on its own [2]: little or no observable insecticidal activity
Cry1Da1: Cry toxin, SEQ ID NO: 17, expressed in Escherichia coli BL21, applied as whole broth | – | – | ~LC50 ([1]; No Zwa): >10 percentage of whole broth
B1 | little observable effect on insect mortality | significant increase in insect mortality | –
B2 | demonstrated insect mortality at the higher application rates | significant increase in insect mortality | –
